Experimental data published in patent US20260258084A1, “New Peptides as Selective IL-23 Receptor Antagonists” (Sanofi, priority 2022, published 2026).
Starred links: 1 amine or outer side, 2 acyl side, 3 side chain; linkers in the order of their positions; H or OH if unused. Positions of bridges follow the written chain, without caps; N, C: chain ends. Non-standard residues stand in square brackets, D forms with d. Residues, ends and D or L forms follow the SMILES beside them. *: point of attachment. X6 = O=C(CCC(=O)[*:3])N[C@@H](CS[*:2])C(=O)[*:1]; Trp(7-Me) = Cc1cccc2c(C[C@H](N)C(=O)O)c[nH]c12; X1 = O=C(CCCCN[*:3])N[C@@H](CS[*:2])C(=O)[*:1]; αMeLys(Me2) = CN(C)CCCC[C@](C)(N)C(=O)O; 2Nal = N[C@@H](Cc1ccc2ccccc2c1)C(=O)O; AEF = NCCOc1ccc(C[C@H](N)C(=O)O)cc1; 3Pal = N[C@@H](Cc1cccnc1)C(=O)O; αMeL = CC(C)C[C@](C)(N)C(=O)O; Suc = O=C(CCC(=O)[*:2])[*:1]; Thp = NC1(C(=O)O)CCOCC1; Me2NCH2CH2 = CN(C)CC*; Aib = CC(C)(N)C(=O)O; Ahx = NCCCCCC(=O)O; Ava = NCCCCC(=O)O; Sar = CNCC(=O)O

Columns and labels:
Pepsin = test system: T1, Pepsin; assay: Protease stability in simulated gastric fluid (Pepsin-SGF, FaSSGF); type: in vitro ADME; conditions: simulated gastric fluid with pepsin (Pepsin-SGF), 60 min, 1 μM peptide, 37° C., read-out: FaSSGF 60 (min), remaining percent of peptide
T1 construct: purchased Merck Millipore
Outline: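 LCMS/MS peak areas, normalised to the time-0 sample as 100%, give percent remaining. Conditions: 37° C incubation of 1 μM final peptide in simulated gastric fluid with pepsin; ethanol/0.1% HCOOH quench at 0, 60, 120, 240 min.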

[1] = target: T2, human interleukin-23 receptor (recombinant human IL-23R-Fc chimera) (Homo sapiens, UniProt Q5VWK5); assay: Human ELISA IL23/IL23R (assay for specific human IL23R antagonists); type: binding; conditions: Table 10; read-out: Human ELISA IL23/IL23R IC50
T2 construct: Fc (IgG Fc fusion)
Outline: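 Competition format: peptide dilutions compete for IL23R-Fc chimera (0.1 μg/ml final, 60 min, room temperature) binding to immobilized human IL23 coated at […] overnight at 4 °C. Read-out is fluorogenic HRP signal from goat anti-hu-IgG1 detecting captured receptor.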

Pancreatin = assay: Protease stability in simulated intestinal fluid (Pancreatin-SIF, FaSSIF); type: in vitro ADME; conditions: 1 μM peptide, 37° C.; for remaining at 1 h, 1 µM: 60 min, read-out: FaSSIF 60 (min), remaining percent of peptide; for remaining at 2 h, 1 µM: 120 min, read-out: FaSSIF 120 (min), remaining percent of peptide; for remaining at 4 h, 1 µM: 240 min, read-out: FaSSIF 240 (min), remaining percent of peptide
Outline: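 LC-MS/MS peak areas at 0, 60, 120 and 240 min, normalised to time 0 as 100%, give percent remaining. Reactions used 1 μM final peptide at 37° C in pancreatin-SIF (1 mg pancreatin in 10 mL SIF concentrate) and were stopped with ethanol containing 0.1% HCOOH.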

[2] = test system: IL-23 induced STAT3 signaling in HEK-Blue™ IL-23 cells; assay: IL-23 induced STAT3 signaling in HEK-Blue IL-23 cells (SEAP reporter); type: cell-based; conditions: human IL23 0.25 ng/ml, read-out: pSTAT3
Outline: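 Secreted SEAP, read at OD 620-655 nm after 45 min QUANTI-Blue development, reports STAT3 activation. Beforehand, cells were exposed to peptide dilutions for 60 min at 37 °C and then to 0.25 ng/ml final human IL-23 overnight, at 10,000 cells/well.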

SMILES	remaining at 1 h, 1 µM (Pepsin)	IC50 [1]	remaining at 1 h, 1 µM (Pancreatin)	remaining at 2 h, 1 µM (Pancreatin)	remaining at 4 h, 1 µM (Pancreatin)	IC50 [2]
CC(=O)NCCCC[C@@H]1NC(=O)[C@H](Cc2c[nH]c3c(C)cccc23)NC(=O)[C@H]([C@@H](C)O)NC(=O)[C@H](CC(N)=O)NC(=O)[C@@H]2CSSC[C@H](NC1=O)C(=O)N[C@@H](Cc1ccc(OCCN(C)C)cc1)C(=O)N[C@@H](Cc1ccc3ccccc3c1)C(=O)N[C@@](C)(CCCCN(C)C)C(=O)N[C@H](C(=O)N[C@@H](CC(N)=O)C(=O)N[C@H](CC(C)C)C(N)=O)CCC(=O)NCCCCC(=O)N2 [compound 54] ([Ava]CNT[Trp(7-Me)]K(Ac)CY(Me2NCH2CH2)[2Nal][αMeLys(Me2)]EN[dL]-NH2; disulfide 2-7; lactam N-11)	91%	0.51 nM	100%	100%	90%	2.59 nM
C[C@H](NC(=O)[C@@H]1CC(=O)NCCCCCC(=O)N[C@H]2CSSC[C@H](NC(=O)[C@H](CCC(N)=O)NC(=O)[C@H](Cc3c[nH]c4ccccc34)NC(=O)CCCCNC2=O)C(=O)N[C@@H](Cc2ccc(OCCN)cc2)C(=O)N[C@@H](Cc2ccc3ccccc3c2)C(=O)NC(C)(C)C(=O)N1)C(=O)NCC(N)=O [compound 53] ([Ahx]C[Ava]WQC[AEF][2Nal][Aib]DAG-NH2; disulfide 2-6; lactam N-10)	0%	0.7 nM	95%	89%	75%	60.8 nM
CC(=O)NCCCC[C@@H]1NC(=O)[C@H](Cc2c[nH]c3c(C)cccc23)NC(=O)[C@H]([C@@H](C)O)NC(=O)[C@H](CC(N)=O)NC(=O)[C@@H]2CSSC[C@H](NC1=O)C(=O)N[C@@H](Cc1ccc(OCCN(C)C)cc1)C(=O)N[C@@H](Cc1ccc3ccccc3c1)C(=O)NC1(CCOCC1)C(=O)N[C@H](C(=O)N[C@@H](CC(N)=O)C(=O)N[C@@H](Cc1cccnc1)C(=O)N(C)CC(N)=O)CCCCNC(=O)CCC(=O)N2 [compound 102] (CNT[Trp(7-Me)]K(Ac)CY(Me2NCH2CH2)[2Nal][Thp]KN[3Pal][Sar]-NH2; disulfide 1-6; linker N-10 via Suc)	97%	0.3 nM	82%	77%	74%	0.09 nM
Cc1cccc2c(C[C@@H]3NC(=O)[C@H]([C@@H](C)O)NC(=O)[C@H](CC(N)=O)NC(=O)[C@@H]4CSSC[C@H](NC(=O)[C@H](CC(C)C)NC3=O)C(=O)N[C@@H](Cc3ccc(OCCN(C)C)cc3)C(=O)N[C@@H](Cc3ccc5ccccc5c3)C(=O)N[C@@](C)(CCCCN(C)C)C(=O)N[C@H](C(=O)N[C@@H](CC(N)=O)C(=O)N[C@@H](Cc3cccnc3)C(=O)N(C)CC(N)=O)CCCCNC(=O)CCC(=O)N4)c[nH]c12 [compound 154] (CNT[Trp(7-Me)]LCY(Me2NCH2CH2)[2Nal][αMeLys(Me2)]KN[3Pal][Sar]-NH2; disulfide 1-6; linker N-10 via Suc)	96%	0.52 nM	99%	97%	96%	0.08 nM
CC(=O)NCCCC[C@@H]1NC(=O)[C@H](Cc2c[nH]c3c(C)cccc23)NC(=O)[C@@H](NC(C)=O)CCCCNC(=O)[C@@H]2CSSC[C@H](NC1=O)C(=O)N[C@@H](Cc1ccc(OCCN(C)C)cc1)C(=O)N[C@@H](Cc1ccc3ccccc3c1)C(=O)NC1(CCOCC1)C(=O)N[C@H](C(=O)N[C@@H](CC(N)=O)C(=O)N[C@@H](Cc1cccnc1)C(=O)N(C)CC(N)=O)CCCCNC(=O)CCC(=O)N2 [compound 105] (Ac-K[Trp(7-Me)]K(Ac)CY(Me2NCH2CH2)[2Nal][Thp]KN[3Pal][Sar]-NH2; linker 1-4-8 via X6)	93%	0.55 nM	78%	80%	77%	0.1 nM
CC(=O)NCCCC[C@@H]1NC(=O)[C@H](Cc2c[nH]c3c(C)cccc23)NC(=O)[C@H]([C@@H](C)O)NC(=O)[C@H](CC(N)=O)NC(=O)[C@@H]2CSSC[C@H](NC1=O)C(=O)N[C@@H](Cc1ccc(OCCN(C)C)cc1)C(=O)N[C@@H](Cc1ccc3ccccc3c1)C(=O)N[C@@](C)(CCCCN(C)C)C(=O)N[C@H](C(=O)N[C@@H](CC(N)=O)C(=O)N[C@@H](Cc1cccnc1)C(=O)N(C)CC(N)=O)CCCCNC(=O)CCC(=O)N2 [compound 151] (CNT[Trp(7-Me)]K(Ac)CY(Me2NCH2CH2)[2Nal][αMeLys(Me2)]KN[3Pal][Sar]-NH2; disulfide 1-6; linker N-10 via Suc)	101%	0.61 nM	97%	97%	96%	0.06 nM
CC(=O)N[C@H]1CCCCNC(=O)[C@@H]2CSSC[C@H](NC(=O)[C@H](CCC(N)=O)NC(=O)[C@H](Cc3c[nH]c4ccccc34)NC1=O)C(=O)N[C@@H](Cc1ccc(OCCN(C)C)cc1)C(=O)N[C@@H](Cc1ccc3ccccc3c1)C(=O)N[C@@](C)(CC(C)C)C(=O)N[C@H](C(=O)N[C@@H](CC(N)=O)C(=O)NCC(N)=O)CCC(=O)NCCCCC(=O)N2 [compound 31] (Ac-KWQCY(Me2NCH2CH2)[2Nal][αMeL]ENG-NH2; linker 1-4-8 via X1)	99%	0.36 nM	83%	72%	55%	5.23 nM
Cc1cccc2c(C[C@@H]3NC(=O)[C@H]([C@@H](C)O)NC(=O)[C@H](CC(N)=O)NC(=O)[C@@H]4CSSC[C@H](NC(=O)[C@H](CCC(N)=O)NC3=O)C(=O)N[C@@H](Cc3ccc(OCCN(C)C)cc3)C(=O)N[C@@H](Cc3ccc5ccccc5c3)C(=O)N[C@@](C)(CCCCN(C)C)C(=O)N[C@H](C(=O)N[C@@H](CC(N)=O)C(=O)N[C@@H](Cc3cccnc3)C(=O)N(C)CC(N)=O)CCCCNC(=O)CCC(=O)N4)c[nH]c12 [compound 152] (CNT[Trp(7-Me)]QCY(Me2NCH2CH2)[2Nal][αMeLys(Me2)]KN[3Pal][Sar]-NH2; disulfide 1-6; linker N-10 via Suc)	99%	0.38 nM	100%	100%	98%	0.04 nM
CC[C@H](C)[C@H](NC(=O)[C@H](CC(N)=O)NC(=O)[C@H](CC(N)=O)NC(=O)[C@@H]1CCC(=O)NCCCCC(=O)N[C@H]2CSSC[C@H](NC(=O)[C@H](CCCCNC(C)=O)NC(=O)[C@H](Cc3c[nH]c4ccccc34)NC(=O)[C@H]([C@@H](C)O)NC(=O)[C@H](CC(N)=O)NC2=O)C(=O)N[C@@H](Cc2ccc(OCCN(C)C)cc2)C(=O)N[C@@H](Cc2ccc3ccccc3c2)C(=O)NC(C)(C)C(=O)N1)C(N)=O [compound 38] ([Ava]CNTWK(Ac)CY(Me2NCH2CH2)[2Nal][Aib]ENNI-NH2; disulfide 2-7; lactam N-11)	86%	0.36 nM	100%	96%	84%	11.9 nM
CC(=O)NCCCC[C@@H]1NC(=O)[C@H](Cc2c[nH]c3c(C)cccc23)NC(=O)[C@@H](NC(C)=O)CCCCNC(=O)[C@@H]2CSSC[C@H](NC1=O)C(=O)N[C@@H](Cc1ccc(OCCN(C)C)cc1)C(=O)N[C@@H](Cc1ccc3ccccc3c1)C(=O)NC(C)(C)C(=O)N[C@H](C(=O)N[C@@H](CC(N)=O)C(=O)N[C@@H](Cc1cccnc1)C(=O)N(C)CC(N)=O)CCCCNC(=O)CCC(=O)N2 [compound 104] (Ac-K[Trp(7-Me)]K(Ac)CY(Me2NCH2CH2)[2Nal][Aib]KN[3Pal][Sar]-NH2; linker 1-4-8 via X6)	100%	0.64 nM	80%	80%	76%	0.1 nM
CC(=O)NCCCC[C@@H]1NC(=O)[C@H](Cc2c[nH]c3c(C)cccc23)NC(=O)[C@H]([C@@H](C)O)NC(=O)[C@H](CC(N)=O)NC(=O)[C@@H]2CSSC[C@H](NC1=O)C(=O)N[C@@H](Cc1ccc(OCCN(C)C)cc1)C(=O)N[C@@H](Cc1ccc3ccccc3c1)C(=O)NC(C)(C)C(=O)N[C@H](C(=O)N[C@@H](CC(N)=O)C(=O)N[C@@H](Cc1c[nH]cn1)C(N)=O)CCC(=O)NCCCCC(=O)N2 [compound 20] ([Ava]CNT[Trp(7-Me)]K(Ac)CY(Me2NCH2CH2)[2Nal][Aib]ENH-NH2; disulfide 2-7; lactam N-11)	95%	0.5 nM	85%	81%	72%	3.12 nM
